# Data from ChEMBL document CHEMBL1795229, “Vasorelaxant effects of macrocyclic bis(bibenzyls) from liverworts” (Bioorg Med Chem, 2011).
# pIC50: −log10 of the molar value. Calls of active or inactive are those of the source. No cut-off for these calls is given here.
# What was measured:
# Aorta [1] = experiment: Vasorelaxant activity in Wistar rat endothelium-intact aortic rings assessed as inhibition of phenylephrine-induced contractions at 30 uM after 10 to 30 mins; type: functional, tissue-based
# Aorta [2] = experiment: Vasorelaxant activity in Wistar rat endothelium-intact aortic rings assessed as inhibition of phenylephrine-induced contractions after 10 to 30 mins; type: functional, tissue-based
# Aorta [3] = experiment: Vasorelaxant activity in Wistar rat endothelium-denuded aortic rings assessed as inhibition of phenylephrine-induced contractions presence of 1 mM of potassium channel inhibitor TEA; type: functional, tissue-based
# Aorta [4] = experiment: Vasorelaxant activity in Wistar rat endothelium-denuded aortic rings assessed as inhibition of phenylephrine-induced contractions at 10 to 100 uM after 10 to 60 mins; type: functional
# Aorta [5] = experiment: Vasorelaxant activity in Wistar rat endothelium-intact aortic rings assessed as inhibition of phenylephrine-induced contractions at 10 to 100 uM; type: functional, tissue-based; conditions: TDE = time-dependent effect
# Aorta [6] = experiment: Vasorelaxant activity in Wistar rat endothelium-denuded aortic rings assessed as inhibition of calcium chloride-induced contractions in calcium-free potassium-rich medium at 30 uM; type: functional, tissue-based
# Aorta [7] = experiment: Vasorelaxant activity in Wistar rat endothelium-intact aortic rings assessed as inhibition of phenylephrine-induced contractions at 10 to 100 uM after 10 to 60 mins; type: functional
# Aorta [8] = experiment: Vasorelaxant activity in Wistar rat endothelium-intact aortic rings assessed as inhibition of phenylephrine-induced contractions after 10 to 60 mins; type: functional, tissue-based
# Aorta [9] = experiment: Vasorelaxant activity in Wistar rat endothelium-denuded aortic rings assessed as inhibition of phenylephrine-induced contractions in calcium-free medium at 30 uM pretreated with nicardipine; type: functional, tissue-based
# Aorta [10] = experiment: Vasorelaxant activity in Wistar rat endothelium-denuded aortic rings assessed as inhibition of phenylephrine-induced contractions at 10 to 100 uM; type: functional, tissue-based; conditions: TDE = time-dependent effect
# Aorta [11] = experiment: Vasorelaxant activity in Wistar rat aortic rings assessed as inhibition of phenylephrine-induced contractions at 10 to 100 uM after 10 to 60 mins in presence of 100 uM of NO synthase inhibitor L-NMMA; type: functional, tissue-based
SMILES,inhibition (Aorta [1]),inhibition (Aorta [5]),inhibition (INH) (Aorta [7]) [%],inhibition (Aorta [8]),also measured
COC1Cc2cccc(c2)Oc2c(O)cccc2CCc2ccc(cc2)Oc2cc1cc(O)c2O (configuration not stated),Active,–,–,–,–
COc1cc(CCc2cccc(Oc3c(O)cccc3CCc3ccc(O)cc3)c2)cc(O)c1O,Active,–,–,–,–
COc1cc2cc(c1OC)Oc1ccc(cc1)CCc1ccc(OC)c(OC)c1Oc1cccc(c1)CC2,Active,–,–,–,–
COc1ccc2c(c1)CCc1ccc(OC)c(c1)-c1cc(ccc1OC)CCc1ccc-2c(OC)c1,Active,–,–,–,–
COc1cccc(CCc2ccc(O)c(Oc3ccc(CCc4cccc(O)c4)cc3)c2)c1,Active,–,–,–,–
COc1cccc2c1Oc1cccc(c1)CCc1cc(OC)c(OC)c(c1)Oc1ccc(cc1)CC2,Active,–,–,–,–
Oc1cc2cc(c1O)Oc1ccc(cc1)CCc1ccc(O)c(O)c1Oc1cccc(c1)CC2,Active,–,–,–,–
Oc1cc2cc(c1O)Oc1ccc(cc1)CCc1cccc(O)c1Oc1cccc(c1)CC2,Active,–,–,–,–
Oc1ccc(CCc2cccc(O)c2O)cc1Oc1ccc(CCc2cccc(O)c2O)cc1,Active,–,–,–,–
Oc1ccc2c(c1)/C=C/c1ccc(O)c(c1)Oc1ccc(cc1)CCc1cccc(c1)O2,Active,–,–,–,–
Oc1ccc2c(c1)CCc1ccc(O)c(c1)-c1cc(ccc1O)/C=C\c1cccc(c1)O2,Active,–,–,–,–
Oc1ccc2c(c1)CCc1ccc(cc1)Oc1cc(cc(-c3cc4cc(c3O)Oc3ccc(cc3)CCc3cc(O)ccc3-c3ccc(cc3O)CC4)c1O)CCc1ccc-2c(O)c1,Active,–,–,–,–
Oc1ccc2cc1Oc1ccc(cc1)CCc1cccc(c1)Oc1c(O)cccc1CC2,Active,–,–,–,–
CC(=O)OCC[N+](C)(C)C [ACETYLCHOLINE],–,–,–,–,pIC50 (Aorta [2]): 6.00
Oc1ccc2cc1-c1cc(ccc1O)CCc1c(ccc(O)c1O)Oc1cccc(c1)/C=C\2 [ISOPLAGIOCHIN B],Active,tde,>60,Dose-dependent effect,inhibition (Aorta [3]): inactive; inhibition (INH) (Aorta [4]): >80%; inhibition (Aorta [6]): inactive; inhibition (Aorta [9]): Active; inhibition (Aorta [10]): tde
Oc1ccc2c(c1)CCc1ccc(O)c(c1)-c1cc(ccc1O)CCc1ccc-2c(O)c1 [ISOPLAGIOCHIN D],Active,tde,>60,Dose-dependent effect,inhibition (Aorta [3]): Active; inhibition (INH) (Aorta [4]): >80%; inhibition (Aorta [6]): Active; inhibition (Aorta [9]): Active; inhibition (Aorta [10]): tde
Oc1cccc(CCc2ccc(Oc3cc(CCc4cccc(O)c4)cc(O)c3O)cc2)c1 [PERROTETTIN F],Active,tde,>60,Dose-dependent effect,inhibition (Aorta [3]): Active; inhibition (INH) (Aorta [4]): >80%; inhibition (Aorta [6]): Active; inhibition (Aorta [9]): Active; inhibition (Aorta [10]): tde
COc1cc2c(cc1O)-c1ccc(O)cc1CCc1cc(O)c(O)c(c1)Oc1ccc(cc1)CC2 [PLAGIOCHIN A],Active,tde,>60,Dose-dependent effect,inhibition (Aorta [4]): inactive; inhibition (Aorta [11]): inactive
Oc1ccc2c(c1)CCc1ccc(cc1)Oc1cc(ccc1O)CCc1ccc-2c(O)c1 [RICCARDI C],Active,tde,>60,Dose-dependent effect,inhibition (Aorta [4]): inactive
COc1ccc2cc1Oc1ccc(cc1)CCc1cc(O)ccc1-c1ccc(cc1O)CC2 [RICCARDI F],Active,tde,>60,Dose-dependent effect,inhibition (Aorta [4]): inactive
COc1ccc2c(c1)CCc1ccc(cc1)Oc1cc(ccc1O)CCc1ccc-2c(O)c1 [RICCARDIN A],Active,tde,>60,Dose-dependent effect,inhibition (Aorta [4]): inactive
